According to patent publication US7795213B2 (POSCO, priority 2002, dated 2010):
Where no end group is shown, it is not given here.

Assays:
Aβ [1] = target: T1, Aβ (Homo sapiens, UniProt P05067); experiment: Binding of growth factors to Aβ; details: among NGF, bFGF, PDGF, VEGF and midkine
T1 construct: Aβ (Aβ) is the major component of senile plaques and is derived from the amyloid precursor protein by proteolytic cleavage

Aβ [2] = target: T1, Aβ; experiment: Determination of Aβ binding region in VEGF, immobilized GST-fusion proteins; details: GST-fusion proteins 200 nM immobilized; 200 nM Aβ
Protocol: The purified proteins were analyzed with 12% SDS-polyacrylmide gel electrophoresis. […] After blocking nonspecific binding sites with 3% BSA/PBS, 200 nM of Aβ was added to each well and allowed to bind to immobilized proteins. Unbound Aβ was removed and the bound Aβ was determined with rabbit anti-Aβ antibody followed by anti-rabbit antibody conjugated with horse radish peroxidase.

VEGF receptor, KDR-Fc = VEGF receptor, KDR-Fc (Homo sapiens, UniProt P35968); details: VEGF 12 nM immobilized; 0.3 nM KDR-Fc
Protocol: After removing unbound KDR-Fc, the bound KDR-Fc was determined by binding of mouse anti-Fc antibody followed by anti-mouse antibody conjugated with horse radish peroxidase.

[3] = target: T2, Aβ-VEGF binding (VEGF, biotinylated Aβ1-42) (Homo sapiens, UniProt P15692); experiment: Aβ-VEGF binding in presence of triamterene; details: 100 nM VEGF, 100 nM biotinylated Aβ1-42, 37° C., 24 hours
T2 sequence (P15692 27-191 isoform P15692-4 limits assumed): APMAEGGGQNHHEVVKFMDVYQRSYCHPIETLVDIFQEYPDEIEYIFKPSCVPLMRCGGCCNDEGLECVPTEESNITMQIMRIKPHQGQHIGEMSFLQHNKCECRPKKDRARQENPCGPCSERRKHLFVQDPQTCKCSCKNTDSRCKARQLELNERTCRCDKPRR
Protocol: The level of the formation of the Aβ-VEGF binding was measured and compared with that of control without triamterene.

Aβ1-42 = target: T3, Aβ1-42 (Homo sapiens, UniProt P05067); experiment: Thioflavin T assay of Aβ aggregation; type: biochemical; details: 24 hours
T3 construct: Aβ1-40, Aβ1-42, and Aβ40-1 (BACHEM, Bubendorf, Switzerland) were immobilized on a CM5 sensor chip; purchased BACHEM
Protocol: 10 μM of thioflavin T was added to the mixture and sufficiently mixed. Then, the fluorescence of the mixture was measured at Ex=444 nm and Em=485 nm, and then, compared with that of control of Aβ incubated alone, to determine the affection on aggregation of Aβ.
50 μM Aβ was incubated at 37° C. for 24 hours together with triamterene of 0 μM, 4 μM, 20 μM or 100 μM, respectively, to generate aggregation of Aβ. Then, the degree of aggregation was determined by the thioflavin T assay as illustrated in Example 11.

MDA-MB-231 tumor cells = experiment: Effect of Aβ peptides on binding of VEGF to tumor cells that express neuropilin-1; type: cell-based; details: data not shown
endothelial cells [4] = experiment: Effect of Aβ peptides on binding of VEGF with the receptors on endothelial cells; type: cell-based; details: 1 μM; data not shown
endothelial cells [5] = experiment: Effect of Aβ peptides on proliferation of endothelial cells induced by VEGF; type: cell-based; details: 1 μM; data not shown
PC12 cells [6] = experiment: Ethidium fluorescence assay, cytotoxicity of Aβ; type: cell-based; details: 5 μM Aβ1-42 incubated with VEGF or GST-HBD at 37° C. for 24 hours; PC12 cells 24 hours
Protocol: The mixture was added to PC12 cells (2×10^4, cells/well, kindly provided by Dr. Pann-Ghill Suh), and then left for reaction at 37° C. for 24 hours. Then, equal volume of 4 μM ethidium homodimer-1 was added to the resulted mixture, and reacted for 30 minutes. Thereafter, the fluorescence of the mixture was measured at Ex=530 nm and Em=645 nm, and then, compared with that of control of non-treated PC12 cells, to determine the cytotoxicity of Aβ.

PC12 cells [7] = experiment: DCF fluorescence, generation of reactive oxygen species by Aβ; type: cell-based; details: PC12 cells 3 hours
Protocol: 5 μM VEGF165 or 5 μM GST-HBD and 5 μM Aβ1-42 were mixed and incubated at 37° C. for 24 hours. The mixture was added to PC12 cells (6×10^4, cells/well, kindly provided by Dr. Pann-Ghill Suh), and then left for reaction at 37° C. for 3 hours. Then, 100 μM of DCF solution was added to the resulted mixture, reacted for 30 minutes, and then washed with PBS (phosphate-buffered saline). The obtained cells were observed through a fluorescent microscope, and DCF fluorescence was measured, to calculate the level of generation of the reactive oxygen species.

PC12 cells [8] = experiment: MTT assay, cytotoxicity of Aβ; type: cell-based; parameters: dose or concentration left out as unconfirmed; details: Aβ1-42 incubated with VEGF165 or GST-HBD at 37° C. for 24 hours; PC12 cells 24 hours
Protocol: The mixture was added to PC12 cells (2×10^4, cells/well, kindly provided by Dr. Pann-Ghill Suh), and then left for reaction at 37° C. for 24 hours. Then, 1/10 volume of 5 mg/ml MTT solution was added to the resulted mixture, and reacted for 2 hours. The obtained cells were lysed by 25% dimethylformamide/10% SDS. Thereafter, the absorbance of the lysate was measured at 570 nm, and then, compared with that of control of non-treated PC12 cells, to determine the reduction of MTT, and thereby determining the viability of the cells.

[9] = target: T4, VEGF/Aβ interaction (VEGF165, biotinylated Aβ) (Homo sapiens, UniProt P15692); experiment: Inhibition of biotinylated Aβ binding to coated VEGF165; details: VEGF165 50 ng/well; biotinylated Aβ 100 ng/ml; increasing concentration of test compound
T4 sequence (P15692 27-191 isoform P15692-4 limits assumed): T2 sequence (P15692 27-191 isoform P15692-4 limits assumed)
Protocol: Biotinylated Aβ (100 ng/ml) was added to each well in the presence of increasing concentration of test compound. After 2 hours, each well was rinsed several times with 0.05% Tween in PBS. The bound biotinylated Aβ was determined with steptavidin conjugated with horse radish peroxidase.

Aβ [10] = target: T1, Aβ; experiment: Inhibition of the aggregation of Aβ by Aβ-VEGF binding inhibitors; type: biochemical
immobilized VEGF165 = target: T5, immobilized VEGF165 (Homo sapiens, UniProt P15692); experiment: Determination of VEGF binding region in Aβ, competition by Aβ fragments; details: Aβ1-42 50 nM; 30 μM or 50 μM Aβ fragment
T5 sequence (P15692 27-191 isoform P15692-4): T2 sequence (P15692 27-191 isoform P15692-4 limits assumed)
Protocol: After removing unbound Aβ, the bound Aβ was determined by binding of rabbit anti-Aβ antibody followed by anti-rabbit antibody conjugated with horse radish peroxidase. […] The bound biotinylated Aβ was determined with streptavidin conjugated with horse radish peroxidase.

[11] = target: T6, VEGF/Aβ interaction (GST-heparin-binding domain, biotinylated Aβ1-42) (Homo sapiens, UniProt P15692); experiment: Heparin inhibition of biotinylated Aβ1-42 binding to immobilized GST-heparin-binding domain; details: GST-heparin-binding domain 100 nM immobilized; biotinylated Aβ1-42 50 nM
T6 construct: made in house
T6 sequence (P15692 137-191 isoform P15692-4): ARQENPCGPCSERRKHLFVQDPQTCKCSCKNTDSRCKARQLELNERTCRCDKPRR
Protocol: After removing unbound biotinylated Aβ, the bound peptide was determined with steptavidin conjugated with horse radish peroxidase.

Aβ-VEGF binding = target: T7, Aβ-VEGF binding (Homo sapiens, UniProt P15692); experiment: Search for an inhibitor of Aβ-VEGF binding
T7 construct: Aβ (Aβ) is the major component of senile plaques and is derived from the amyloid precursor protein by proteolytic cleavage
T7 sequence (P15692 27-191 isoform P15692-4 limits assumed): T2 sequence (P15692 27-191 isoform P15692-4 limits assumed)

Sequence of VEGF receptor, KDR-Fc (P35968 with tags, fused parts or gaps limits assumed): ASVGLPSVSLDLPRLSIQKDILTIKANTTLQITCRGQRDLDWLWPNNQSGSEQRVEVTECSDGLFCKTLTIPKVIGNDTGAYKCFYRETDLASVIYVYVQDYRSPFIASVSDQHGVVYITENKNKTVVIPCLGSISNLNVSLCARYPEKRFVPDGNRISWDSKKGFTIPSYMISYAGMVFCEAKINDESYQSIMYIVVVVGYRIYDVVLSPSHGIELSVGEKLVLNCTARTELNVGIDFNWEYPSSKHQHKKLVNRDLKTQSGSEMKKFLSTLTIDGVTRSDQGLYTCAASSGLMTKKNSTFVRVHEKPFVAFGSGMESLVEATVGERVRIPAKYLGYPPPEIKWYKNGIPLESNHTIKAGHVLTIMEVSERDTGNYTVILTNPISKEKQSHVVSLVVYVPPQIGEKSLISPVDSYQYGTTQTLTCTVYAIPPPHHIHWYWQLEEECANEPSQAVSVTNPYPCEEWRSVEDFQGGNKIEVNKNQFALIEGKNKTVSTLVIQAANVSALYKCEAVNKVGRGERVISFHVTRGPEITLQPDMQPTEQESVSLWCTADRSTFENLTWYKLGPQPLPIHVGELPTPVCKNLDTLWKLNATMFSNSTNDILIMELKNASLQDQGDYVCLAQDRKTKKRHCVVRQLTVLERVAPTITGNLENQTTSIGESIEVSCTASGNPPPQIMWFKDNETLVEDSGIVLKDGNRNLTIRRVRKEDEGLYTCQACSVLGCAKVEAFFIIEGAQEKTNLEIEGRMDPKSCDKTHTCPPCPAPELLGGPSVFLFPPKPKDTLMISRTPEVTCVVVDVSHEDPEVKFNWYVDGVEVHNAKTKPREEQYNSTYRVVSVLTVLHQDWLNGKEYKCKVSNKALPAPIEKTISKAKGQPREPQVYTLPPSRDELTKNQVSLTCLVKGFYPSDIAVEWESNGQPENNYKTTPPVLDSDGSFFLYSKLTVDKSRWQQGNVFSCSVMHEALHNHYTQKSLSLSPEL

Molecule: bFGF: basic fibroblast growth factor
- binding of growth factor to Aβ (Aβ [1]): only VEGF and midkine bound to A

Molecule: GST-CHBD: C-terminal half (amino acid 29-55) of heparin-binding domain fused to GST (CKNTDSRCKARQLELNERTCRCDKPRR; cysteine pairing not given here; also: fused to GST)
- binding of Aβ to immobilized GST-fusion protein (Aβ [2]): Aβ binds to C-terminal sub-domain of heparin-binding domain

Molecule: PDGF
- binding of growth factor to Aβ (Aβ [1]): only VEGF and midkine bound to A

Molecule: Nc1nc(N)c2nc(-c3ccccc3)c(N)nc2n1 [triamterene]
- affection on the VEGF-VEGF receptor binding (VEGF receptor, KDR-Fc): no affection on the VEGF-VEGF receptor binding regardless of the concentration
- inhibition of the Aβ-VEGF binding [3]: concentration-dependently inhibits the binding between Aβ and VEGF
- affection on aggregation of Aβ (thioflavin T) (Aβ1-42; 50 μM Aβ, 37° C., triamterene 0, 4, 20 or 100 μM): no affection on aggregation of Aβ regardless of the concentration

Molecule: Aβ1-42: β-amyloid peptide 1-42, SEQ ID NO:4
- effect on the binding of VEGF to MDA-MB-231 tumor cells (MDA-MB-231 tumor cells): Neither did Aβ1-40 nor Aβ1-42 affect
- effect on the binding of VEGF with the receptors on endothelial cells (endothelial cells [4]): Neither Aβ1-40 nor Aβ1-42, even at a high concentration (1 μM), affected
- effect on the proliferation of endothelial cells induced by VEGF (endothelial cells [5]): Neither Aβ1-40 nor Aβ1-42, even at a high concentration (1 μM), affected

Molecule: HBD: full heparin-binding domain of VEGF165 (SEQ ID NO:2) fused to GST (ARQENPCGPCSERRKHLFVQDPQTCKCSCKNTDSRCKARQLELNERTCRCDKPRR; cysteine pairing not given here; also: fused to GST)
- inhibition of the cytotoxicity of Aβ (ethidium homodimer-1 fluorescence) (PC12 cells [6]): inhibit the cytotoxicity of Aβ depending on the concentration
- generation of the reactive oxygen species, treatment alone (PC12 cells [7]; 5 μM VEGF165 or 5 μM GST-HBD alone): no effect on the generation of the reactive oxygen species
- generation of the reactive oxygen species by Aβ, treatment together with Aβ (PC12 cells [7]; 5 μM VEGF165 or 5 μM GST-HBD with 5 μM Aβ1-42): inhibitory effect on the generation of the reactive oxygen species by Aβ
- inhibition of the cytotoxicity of Aβ (MTT reduction) (PC12 cells [8]): exhibits the activity to inhibit the cytotoxicity of Aβ
- inhibition of aggregation of Aβ (thioflavin T) (Aβ1-42; 50 μM Aβ1-42, 37° C., VEGF or GST-HBD at various concentrations): inhibit aggregation of Aβ depending on the concentration

Molecule: Aβ1-40: β-amyloid peptide residues 1-40 (BACHEM)
- effect on the binding of VEGF to MDA-MB-231 tumor cells (MDA-MB-231 tumor cells): Neither did Aβ1-40 nor Aβ1-42 affect
- effect on the binding of VEGF with the receptors on endothelial cells (endothelial cells [4]): Neither Aβ1-40 nor Aβ1-42, even at a high concentration (1 μM), affected
- effect on the proliferation of endothelial cells induced by VEGF (endothelial cells [5]): Neither Aβ1-40 nor Aβ1-42, even at a high concentration (1 μM), affected

Molecule: O=C(O[C@@H]1Cc2c(O)cc(O)cc2O[C@@H]1c1cc(O)c(O)c(O)c1)c1cc(O)c(O)c(O)c1 [EGCG, epigallocatechin gallate, reference compound]
- inhibition of binding of Aβ to VEGF [9]: inhibition
- activity to inhibit the aggregation of Aβ by itself (Aβ [10]): additional activity to inhibit the aggregation of Aβ by itself

Molecule: Aβ25-35: partial fragment of Aβ, residues 25-35 of SEQ ID NO:4 (GSNRGAIIGLM; listed as Homo sapiens)
- competition with Aβ for binding to immobilized VEGF165 (immobilized VEGF165): competes with Aβ for its binding to immobilized VEGF165

Molecule: NGF: nerve growth factor
- binding of growth factor to Aβ (Aβ [1]): only VEGF and midkine bound to A

Molecule: tannic acid
- inhibition of binding of Aβ to VEGF [9]: inhibition

Molecule: heparin
- IC50, inhibition of binding of biotinylated Aβ1-42 to heparin-binding domain [11]: ~0.025 µg/mL

Molecule: fucoidan
- activity to inhibit the aggregation of Aβ by itself (Aβ [10]): additional activity to inhibit the aggregation of Aβ by itself
- inhibitor of Aβ-VEGF binding (search) (Aβ-VEGF binding): searched as an inhibitor of Aβ-VEGF binding

B1: midkine: heparin-binding, neurotrophic growth factor whose expression occurs mainly in fetus (protein)
chain: VAKKKDKVKKGGPGSECAEWAWGPCTPSSKDCGVGFREGTCGAQTQRIRCRVPCNWKKEFGADCKYKFENWGACDGGTGTKVRQGTLKKARYNAQCQETIRVTKPCTPKTKAKAKAKKGKGKD
- binding of growth factor to Aβ (Aβ [1]): bound to A
